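In this assay, cells in 96-well plates receive the compound at five concentrations for 48 hours. Endpoints are linearly interpolated between the surrounding concentrations. Abbreviation: GI50, concentration required for 50% inhibition of growth.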 Active and inactive are the calls of the source. Cut-off read from the data, not from the text of the source: active = GI50 up to about 1.1 µM and inactive = higher.
What was measured:
Assay in all cases: DTP human tumour cell line panel, 48 h
[1] = test system: BT-549
[2] = test system: Hs-578T
[3] = test system: 786-0
[4] = test system: SF-295
[5] = test system: SK-MEL-2
[6] = test system: UACC-257
[7] = test system: OVCAR-5
[8] = test system: NCI-H460
[9] = test system: SNB-75
[10] = test system: DU-145
[11] = test system: HCT-15
[12] = test system: M14
[13] = test system: MCF7
[14] = test system: NCI/ADR-RES
[15] = test system: ACHN
[16] = test system: SW-620
[17] = test system: SK-OV-3
[18] = test system: MDA-MB-435
[19] = test system: TK-10
[20] = test system: UACC-62

| Compound | GI50 [1] | GI50 [2] | GI50 [3] | GI50 [4] | GI50 [5] | GI50 [6] | GI50 [7] | GI50 [8] | GI50 [9] | GI50 [10] | GI50 [11] [µM] | GI50 [12] | GI50 [13] | GI50 [14] | GI50 [15] | GI50 [16] | GI50 [17] | GI50 [18] | GI50 [19] | GI50 [20] |
| --- | --- | --- | --- | --- | --- | --- | --- | --- | --- | --- | --- | --- | --- | --- | --- | --- | --- | --- | --- | --- |
| CC(=O)C1=C(C)N2C(=NC3=C(CCc4ccccc43)C2c2ccc(Cl)cc2)S1 (stereo not given) | > 100 µM (inactive) | > 64 µM (inactive) | > 52.4 µM (inactive) | > 100 µM (inactive) | > 45 µM (inactive) | > 78.5 µM (inactive) | > 100 µM (inactive) | 16.1 µM (inactive) | > 32.5 µM (inactive) | > 100 µM (inactive) | 29.2 | > 40.4 µM (inactive) | 20.5 µM (inactive) | > 73.8 µM (inactive) | > 100 µM (inactive) | > 33.3 µM (inactive) | > 100 µM (inactive) | > 43.1 µM (inactive) | > 100 µM (inactive) | 58.7 µM (inactive) |
| N#Cc1nc(C#N)c(N)[nH]1 | > 100 µM (inactive) | > 100 µM (inactive) | > 100 µM (inactive) | > 100 µM (inactive) | > 100 µM (inactive) | > 100 µM (inactive) | > 100 µM (inactive) | > 100 µM (inactive) | > 100 µM (inactive) | > 100 µM (inactive) | > 100 | > 100 µM (inactive) | > 100 µM (inactive) | > 100 µM (inactive) | > 100 µM (inactive) | > 100 µM (inactive) | > 100 µM (inactive) | > 100 µM (inactive) | > 100 µM (inactive) | > 100 µM (inactive) |
| Cc1ccc(S(=O)(=O)c2c(O)c3ccc(O)c(C)c3oc2=O)cc1 | > 100 µM (inactive) | > 100 µM (inactive) | > 100 µM (inactive) | > 100 µM (inactive) | > 100 µM (inactive) | > 100 µM (inactive) | > 100 µM (inactive) | > 100 µM (inactive) | > 100 µM (inactive) | > 100 µM (inactive) | > 100 | > 100 µM (inactive) | > 100 µM (inactive) | > 100 µM (inactive) | > 100 µM (inactive) | > 100 µM (inactive) | > 100 µM (inactive) | > 100 µM (inactive) | > 100 µM (inactive) | > 100 µM (inactive) |
| COc1cc(/C=N/N=C2NCCCCN2)ccc1O | > 100 µM (inactive) | > 100 µM (inactive) | > 100 µM (inactive) | 61.7 µM (inactive) | > 100 µM (inactive) | > 100 µM (inactive) | > 100 µM (inactive) | > 100 µM (inactive) | > 100 µM (inactive) | > 100 µM (inactive) | > 100 | > 100 µM (inactive) | 50.2 µM (inactive) | > 100 µM (inactive) | > 100 µM (inactive) | > 100 µM (inactive) | > 100 µM (inactive) | > 100 µM (inactive) | > 100 µM (inactive) | > 100 µM (inactive) |
| COC(=O)C1=C(O)C(C(=O)OC)[C@@]2(O)[C@@H](C(=O)OC)C(c3ccc(OC(=O)/C=C/c4ccccc4)cc3)C[C@@H]1[C@@H]2C(=O)OC (stereo not given in full) | 8.22 µM (inactive) | 68.4 µM (inactive) | 10 µM (inactive) | 23.9 µM (inactive) | 4.32 µM (inactive) | 7.23 µM (inactive) | 12.1 µM (inactive) | 2.64 µM (inactive) | 29.6 µM (inactive) | 11 µM (inactive) | 3.89 | 6.84 µM (inactive) | 2.99 µM (inactive) | 8.41 µM (inactive) | 18.9 µM (inactive) | 6.01 µM (inactive) | 75.5 µM (inactive) | 4.83 µM (inactive) | 6.82 µM (inactive) | 4.36 µM (inactive) |
| C=C(CN(C)C)C(=O)c1ccccc1[N+](=O)[O-] | 16.3 µM (inactive) | 22.9 µM (inactive) | 12.2 µM (inactive) | 32.8 µM (inactive) | 18 µM (inactive) | 15.8 µM (inactive) | 15.8 µM (inactive) | 34 µM (inactive) | 34.8 µM (inactive) | 23.6 µM (inactive) | 10.8 | 15.5 µM (inactive) | 14.3 µM (inactive) | 19.2 µM (inactive) | 16.1 µM (inactive) | 11.3 µM (inactive) | 37.2 µM (inactive) | 16.1 µM (inactive) | 19.5 µM (inactive) | 17.9 µM (inactive) |
| CN(C)CCn1c(=O)c2ccc(NCCNCCO)c3c(=O)c4cc(O)ccc4n(c1=O)c23 | 10.9 µM (inactive) | 0.667 µM (active) | 0.617 µM (active) | 1.6 µM (inactive) | 1.9 µM (inactive) | 4.43 µM (inactive) | 1.79 µM (inactive) | 0.655 µM (active) | 1.2 µM (inactive) | 0.875 µM (active) | 5.31 | 2.69 µM (inactive) | 0.465 µM (active) | 17.1 µM (inactive) | 0.571 µM (active) | 0.532 µM (active) | 5.55 µM (inactive) | 2.39 µM (inactive) | 4.63 µM (inactive) | 1.47 µM (inactive) |

Reference: ChEMBL document CHEMBL1201862, “PubChem BioAssay data set” (2004)
